# Results as given in ChEMBL document CHEMBL3392969, “SAR156497, an exquisitely selective inhibitor of aurora kinases” (J Med Chem, 2015).
# What was measured:
# Aurora kinase B = Aurora kinase B (Homo sapiens, UniProt Q96GD4)
# Description: Inhibition of poly-histidine tagged full length recombinant aurora B (unknown origin) assessed as phosphorylation of NuMA-histidine substrate by scintillation counting analysis
# HeLa = experiment: cells; conditions: Homo sapiens
# Description: Antiproliferative activity against human HeLa cells assessed as 14C-thymidine incorporation by Micro-Beta radioactivity counting analysis
# in vitro [1] = conditions: human, liver microsomes
# Description: Metabolic stability human liver microsomes assessed as stability at 5 uM by LC/MS-MS analysis
# in vitro [2] = conditions: mouse, liver microsomes
# Description: Metabolic stability mouse liver microsomes assessed as stability at 5 uM by LC/MS-MS analysis
# Cytochrome P450 3A4 [3] = target: T1, Cytochrome P450 3A4 (Homo sapiens, UniProt P08684)
# Description: Inhibition of human recombinant CYP3A4 co-expressed with human P450 reductase/human b5 reductase using 7-benzyloxyquinoline substrate
# [4] = Antitumor activity against human HCT116 cells xenografted in SCID mouse assessed as decrease in […] positive cells at 25 mg/kg/day, sc after 48 hrs infusion schedule; conditions: HCT-116, sc
# [5] = Antitumor activity against human HCT116 cells xenografted in SCID mouse assessed as decrease in […] positive cells at 25 mg/kg, sc after 24 hrs infusion schedule; conditions: HCT-116, sc
# in vivo [6] = conditions: mouse, po
# Description: Oral bioavailability in mouse
# [7] = Plasma concentration in human HCT116 cells xenografted in SCID mouse at 50 mg/kg/day, sc infusion after 8 hrs
# PBMC = experiment: cells; conditions: Homo sapiens, 96 h
# Description: Cytotoxicity against human hematological tumor PBMC assessed as viability after 96 hrs by MTS assay
# [8] = Antitumor activity against human HCT116 cells xenografted in SCID mouse assessed as decrease in […] positive cells at 50 mg/kg, sc after 24 hrs infusion schedule; conditions: HCT-116, sc
# in vivo [9] = conditions: mouse
# Description: Volume of distribution in mouse
# Aurora kinase C = target: T2, Aurora kinase C (Homo sapiens, UniProt Q9UQB9)
# T2 sequence (Q9UQB9 whole entry): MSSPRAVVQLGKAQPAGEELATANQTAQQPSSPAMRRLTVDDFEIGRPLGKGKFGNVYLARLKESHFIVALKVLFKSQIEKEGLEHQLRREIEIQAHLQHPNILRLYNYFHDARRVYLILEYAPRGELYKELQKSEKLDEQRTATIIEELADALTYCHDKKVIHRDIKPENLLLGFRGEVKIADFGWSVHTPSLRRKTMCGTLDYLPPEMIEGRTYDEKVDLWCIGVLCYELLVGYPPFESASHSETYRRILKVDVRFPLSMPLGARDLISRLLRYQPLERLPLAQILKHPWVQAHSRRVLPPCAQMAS
# Description: Inhibition of poly-histidine tagged full length recombinant aurora C (unknown origin) assessed as phosphorylation of NuMA-histidine substrate by scintillation counting analysis
# in vitro [10] = conditions: human, Caco-2
# Description: Permeability across human Caco2 cells
# in vivo [11] = conditions: mouse; remark: listed apart in the source
# [12] = Antitumor activity against human HCT116 cells xenografted in SCID mouse assessed as tumor growth at 25 mg/kg/day, sc after 48 hrs infusion schedule; conditions: route subcutaneous
# [13] = Antitumor activity against human HCT116 cells xenografted in SCID mouse assessed as tumor growth at 25 mg/kg, sc after 24 hrs infusion schedule; conditions: route subcutaneous
# Cytochrome P450 3A4 [14] = target: T1, Cytochrome P450 3A4; remark: listed apart in the source
# Description: Inhibition of human recombinant CYP3A4 in liver microsomes by mechanism based inhibition assay
# Chain of Aurora kinase B (Q96GD4 whole entry): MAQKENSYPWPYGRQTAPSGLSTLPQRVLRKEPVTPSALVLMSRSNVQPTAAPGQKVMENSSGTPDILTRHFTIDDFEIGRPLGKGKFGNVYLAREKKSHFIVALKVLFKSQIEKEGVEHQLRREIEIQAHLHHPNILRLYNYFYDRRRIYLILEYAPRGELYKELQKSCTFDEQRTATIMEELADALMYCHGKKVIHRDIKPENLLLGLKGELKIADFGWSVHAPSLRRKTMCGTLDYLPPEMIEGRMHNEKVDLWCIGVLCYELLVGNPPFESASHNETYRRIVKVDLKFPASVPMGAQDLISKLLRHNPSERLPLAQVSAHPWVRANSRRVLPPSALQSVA
# T1 sequence (P08684 whole entry, the tested form may be a part): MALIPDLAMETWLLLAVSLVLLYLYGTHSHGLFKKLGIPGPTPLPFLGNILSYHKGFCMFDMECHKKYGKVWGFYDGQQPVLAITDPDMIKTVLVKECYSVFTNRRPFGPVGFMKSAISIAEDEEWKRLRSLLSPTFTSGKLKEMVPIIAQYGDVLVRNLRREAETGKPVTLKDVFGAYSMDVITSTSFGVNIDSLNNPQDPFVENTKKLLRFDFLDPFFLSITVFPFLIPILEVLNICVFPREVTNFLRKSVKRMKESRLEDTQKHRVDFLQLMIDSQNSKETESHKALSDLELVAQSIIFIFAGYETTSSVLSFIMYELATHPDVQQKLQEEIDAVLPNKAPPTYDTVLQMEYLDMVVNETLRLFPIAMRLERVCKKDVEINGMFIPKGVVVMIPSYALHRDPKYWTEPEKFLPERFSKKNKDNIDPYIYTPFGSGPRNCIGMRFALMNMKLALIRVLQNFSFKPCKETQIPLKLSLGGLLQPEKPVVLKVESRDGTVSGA
smiles,measurement,setting,value
CCOC(=O)c1[nH]cc2c1NC1=C(C(=O)CCC1)C2c1cccc(Oc2nc3ccccc3[nH]2)c1 (racemic),IC50,Aurora kinase B,0.012 µM
same,IC50,HeLa,0.2 µM
CCOC(=O)c1[nH]cc2c1NC1=C(C(=O)CCC1)C2c1ccc(Sc2nc3c(N)cccc3[nH]2)o1 (racemic),IC50,Aurora kinase B,0.025 µM
same,remaining at 5 µM,in vitro [1],23%
same,remaining at 5 µM,in vitro [2],35%
CCOC(=O)c1[nH]cc2c1NC1=C(C(=O)CCC1)C2c1ccc(Sc2nc3c(F)c(F)c(F)cc3[nH]2)o1 (racemic),remaining at 5 µM,in vitro [1],46%
same,remaining at 5 µM,in vitro [2],22%
CCOC(=O)c1[nH]cc2c1NC1=C(C(=O)CCC1)C2c1ccc(Sc2nc3ccc(F)c(F)c3[nH]2)o1 (racemic),remaining at 5 µM,in vitro [1],66%
same,remaining at 5 µM,in vitro [2],66%
same,IC50,Cytochrome P450 3A4 [3],34 µM
"COC(=O)c1[nH]cc2c1NC1=C(C(=O)CCC1)C2c1ccc(Sc2nc3ccccc3[nH]2)o1 (single isomer, unassigned; (+))",IC50,HeLa,0.026 µM
CCOC(=O)c1[nH]cc2c1NC1=C(C(=O)CCC1)C2c1ccc(Sc2nc3cccc(F)c3[nH]2)o1 (racemic),IC50,Aurora kinase B,0.006 µM
same,remaining at 5 µM,in vitro [1],47%
same,remaining at 5 µM,in vitro [2],58%
same,IC50,Cytochrome P450 3A4 [3],4.5 µM
CCOC(=O)c1[nH]cc2c1NC1=C(C(=O)CNC1)C2c1ccc(Sc2nc3cccc(Cl)c3[nH]2)o1 (racemic),IC50,Aurora kinase B,0.005 µM
O=C1CNCC2=C1C(c1cccc(Oc3ccc(Cl)cc3)c1)c1c[nH]nc1N2 (racemic),IC50,HeLa,> 10 µM
CCOC(=O)c1[nH]cc2c1NC1=C(C(=O)CCC1)C2c1ccc(Sc2nc3cc(Cl)ccc3[nH]2)o1 (racemic),remaining at 5 µM,in vitro [1],90%
same,remaining at 5 µM,in vitro [2],88%
O=C1CNCC2=C1C(c1cccc(Oc3ccc(Cl)c(Cl)c3)c1)c1c[nH]nc1N2 (racemic),IC50,HeLa,> 10 µM
COC(=O)c1csc2c1NC1=C(C(=O)CCC1)C2c1ccc(Sc2nc3ccccc3[nH]2)o1 (racemic),IC50,Aurora kinase B,0.005 µM
same,IC50,HeLa,0.127 µM
CCOC(=O)c1[nH]cc2c1NC1=C(C(=O)CCC1)C2c1cnc(Sc2nc3ccccc3[nH]2)s1 (racemic),IC50,HeLa,> 10 µM
CCOC(=O)c1[nH]cc2c1NC1=C(C(=O)CNC1)C2c1ccc(Sc2nc3c(F)cccc3[nH]2)o1 (racemic),IC50,Aurora kinase B,0.003 µM
Nc1nc(O)c2c(n1)NC1=C(C(=O)CCC1)C2c1ccc(Sc2nc3ccccc3[nH]2)o1 (racemic),IC50,HeLa,> 10 µM
CCOC(=O)c1[nH]nc2c1NC1=C(C(=O)CCC1)C2c1ccc(Sc2nc3ccccc3[nH]2)o1 (racemic),IC50,Aurora kinase B,0.033 µM
same,IC50,HeLa,7.7 µM
CCOC(=O)c1[nH]cc2c1NC1=C(C(=O)CCC1)C2c1cccc(Sc2nc3ccccc3[nH]2)n1 (racemic),IC50,Aurora kinase B,0.007 µM
same,IC50,HeLa,4.4 µM
COc1ccc(Oc2cccc(C3C4=C(CNCC4=O)Nc4n[nH]cc43)c2)cc1 (racemic),IC50,HeLa,> 10 µM
CCOC(=O)c1[nH]cc2c1NC1=C(C(=O)CN(Cc3ccccc3)C1)C2c1ccc(Sc2nc3ccccc3[nH]2)o1 (racemic),IC50,Aurora kinase B,0.008 µM
CCOC(=O)c1[nH]cc2c1NC1=C(C(=O)CCC1)[C@H]2c1cccc(Oc2nc3ccccc3[nH]2)c1,inhibition in vivo at 25 mg/kg/day,[4],16%
same,inhibition in vivo at 25 mg/kg,[5],19%
same,IC50,Aurora kinase B,0.001 µM
same,bioavailability,in vivo [6],64%
same,remaining at 5 µM,in vitro [1],53%
same,remaining at 5 µM,in vitro [2],32%
same,concentration at 8 h,[7],63 µM
same,IC50,PBMC,> 10 µM
same,inhibition in vivo at 50 mg/kg,[8],47%
same,Vd,in vivo [9],0.14 L/kg
same,IC50,Aurora kinase C,0.003 µM
same,Papp,in vitro [10],6 ×10⁻⁶ cm/s
same,half-life,in vivo [11],2.4 h
same,Activity,[12],19%
same,Activity,[13],59%
same,IC50,HeLa,0.067 µM
same,Ki,Cytochrome P450 3A4 [14],0.99 µM
O=C1CCCC2=C1C(c1ccc(Sc3nc4ccccc4[nH]3)o1)c1n[nH]cc1N2 (racemic),IC50,Aurora kinase B,0.5 µM
same,IC50,HeLa,> 10 µM
CCOC(=O)c1[nH]cc2c1NC1=C(C(=O)CCC1)C2c1cc(Sc2nc3ccccc3[nH]2)cs1 (racemic),IC50,Aurora kinase B,0.002 µM
same,IC50,HeLa,1.5 µM
CCOC(=O)c1[nH]cc2c1NC1=C(C(=O)CN(C(=O)OC(C)(C)C)C1)C2c1ccc(Sc2nc3ccccc3[nH]2)o1 (racemic),IC50,Aurora kinase B,0.026 µM
